SMILES strings stand for the structures.

This series can be described thus: gradient 5% acetonitrile 3 min, to 50% in 2 min, to 85% in 15 min, held 3 min, 100 µL/min. The following applies: column: Zorbax Extend-C18 2.1 x 50 mm; eluents: water / acetonitrile, 0.1% formic acid. In outline:
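Retention times come from adduct peaks that were picked computationally and then checked by hand. The standards, pure and pooled in mixtures of ~100 molecules, were run on a Zorbax Extend-C18 column (2.1 × 50 mm, 1.8 μm) at 100 μL/min with water and acetonitrile, each with 0.1% formic acid. Detection was by quadrupole time-of-flight mass spectrometry in positive and negative ionization mode, with a dead volume of 40 μL and a dwell volume of 900 μL.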
`COc1ccc(C(=O)N2CCc3ccc(C(=O)O)cc32)cc1` had an RP-LC retention time of 741 s.
In turn, `Cc1cccc(CNC(=O)C2CC(=O)N(c3ccc4c(c3)CCN4C(=O)C3CC3)C2)c1` (stereo not drawn) yielded an RP-LC retention time of 768 s.
Under `CCN(C(=O)Cc1c(C(=O)O)c(C)cn1CC)c1ccccc1` stands 907 s.
Then `c1ccc(CCc2nc3nccc(-c4ccncc4)n3n2)cc1`, with 713 s; and `COc1cccc(CNC(=O)CN2CCN(Cc3ccc(F)cc3)C2=O)c1`, with 769 s.
Molecule `COc1ccc(-c2ccnn2-c2ccc(SCc3ccccc3F)nn2)cc1` gave an RP-LC retention time of 1310 s.
Under `COc1ccc(-c2cc3nn(CC(=O)Nc4ccc(C)cc4F)c(=O)n3c(C)n2)cc1` stands 963 s.
As for `O=C(Cn1nc(N2CCCCCC2)c2ccccc2c1=O)Nc1ccccc1F`, the RP-LC retention time turned out to be 1120 s.
Under `CCOC(=O)C1=CN(Cc2ccccc2)C=C(C(=O)OCC)C1c1ccccc1` stands 1130 s.
Under `O=C(c1ccc(Cl)s1)N1CCC(Oc2nc3c(F)cc(F)cc3s2)CC1` stands 1140 s; under `CCCNS(=O)(=O)c1ccc(Cl)c(-c2nnc(-c3ccc(OC)cc3)o2)c1`, 1010 s; under `Cc1ccc(NC(=O)CSC2=C(C#N)C(c3cccs3)CC(=O)N2)cc1Cl` (stereo not drawn), 915 s.
`Cc1ncc2c(n1)C[C@@H]1CC[C@H]2N1C(=O)COc1ccccc1`: the RP-LC retention time was determined as 669 s.
On to `O=c1ccc(-c2cccc(Cl)c2)nn1CCc1nc(-c2ccc3c(c2)OCO3)no1`, for which the RP-LC retention time came to 999 s.
Molecule `Cc1csc(-c2cc(S(=O)(=O)NCCN3CCC(C)CC3)cn2CC(=O)N2CCCCC2)n1` registered an RP-LC retention time of 679 s.
For the molecule `Cc1nc(-c2ccc3c(c2)n(CC(=O)NC2CCCC2)c(=O)n3C(C)C)no1`, the RP-LC retention time is 780 s.
Under `Cc1nc(-c2ccc3c(c2)CCN3C(=O)Cc2ccc(F)cc2)cs1` stands 990 s; under `COc1ccc(C)cc1NC(=O)N1CCC2(CC1)NC(=O)c1ccc(F)cc1N2C`, 777 s.
Then `Cc1ccc(-c2nc(NC(=O)CCCOc3ccccc3C)sc2C)cc1`, with 1270 s; and `O=C1CC(c2nc3ccccc3n2CCN2CCOCC2)CN1Cc1ccccc1` (stereo not drawn), with 597 s.
Molecule `CCc1ccc(-c2nc(NC(=O)c3cc(C)on3)sc2C)cc1` registered an RP-LC retention time of 1160 s.
Under `Cc1ccc(S(=O)(=O)Cc2ccc(-c3nc(-c4ccc5oc(C)nc5c4)no3)cc2)cc1` stands 1070 s; under `CCN1c2ccc(F)cc2C(=O)NC12CCN(C(=O)c1ccc3c(c1)OCO3)CC2`, 749 s.
Under `O=C(NCCN1CCCCC1)C1CCCN(c2ncc(-c3cccc(F)c3)cn2)C1` (stereo not drawn) stands 696 s; under `O=C(Nc1ccc2ncnc(N3CCCCC3)c2c1)c1ccc(Br)o1`, 704 s.
For `O=C(CCn1cnc2ccccc2c1=O)N1CCN(CCn2cccn2)CC1`, the RP-LC retention time was determined as 539 s.
`CCc1ccc(Nc2c(C(=O)N3CCOCC3)cnc3nc(C)ccc23)cc1`: the RP-LC retention time was 601 s.
Under `O=C(NCCN1CCN(Cc2ccccc2)CC1)c1cc(=O)n2c(nc3ccccc32)s1` stands 649 s; under `CCc1nc(-c2csc(S(=O)(=O)N3CCCC(C(=O)Nc4ccc(Cl)cc4)C3)c2)no1` (stereo not drawn), 1100 s.
With `O=C(NCCc1cccs1)C1CCCN(C(=O)c2cc(-c3ccccn3)n[nH]2)C1` (stereo not drawn), the RP-LC retention time was 645 s.
`Cc1ccc(C(=O)N2C[C@@H]3C[C@H](NC(=O)c4ccccc4)[C@H]2C3)cc1F`: the RP-LC retention time amounted to 811 s.
For the molecule `Cc1ccc(-c2csc(Nc3ccc(Br)cn3)n2)cc1`, the RP-LC retention time was 1250 s.
Then `CCCn1c(=O)sc2cc(S(=O)(=O)N3CCC(C(=O)Nc4cccc(OC)c4)CC3)ccc21`, with 978 s; and `CCc1ccc(-c2nc(-c3ccc(-n4ccnc4)nc3)no2)cc1`, with 882 s.
Under `O=C(c1csc(Nc2ccc(OC(F)F)cc2)n1)N1CCN(c2ncccn2)CC1` stands 774 s; under `CCn1c(=O)c(C(=O)NCc2ccccc2OC)nc2cccnc21`, 800 s.
`COc1ccc(C2(C(=O)Nc3cc(-c4ccco4)no3)CC2)cc1` gave an RP-LC retention time of 1000 s.
Under `COC(=O)c1ccc(CSc2nnc(NC(=O)C3(c4cccs4)CCCC3)s2)o1` stands 978 s; under `CN(C)C(=O)c1ccc2c(c1)N(CC(=O)NCCCc1ccccc1)C(=O)CS2`, 726 s; under `Oc1c(CN2CCN(c3ccccc3)CC2)cc(Br)c2cccnc12`, 830 s.
Consider `COc1ccc(NC(=O)CSc2cc(NCc3ccccc3Cl)ncn2)c(OC)c1`, for which the RP-LC retention time came out at 933 s.
Under `CCN1CCCn2cc(S(=O)(=O)NCc3ccccc3Cl)cc2C1=O` stands 750 s; under `O=C(CN1C(=O)CCCc2cc(S(=O)(=O)N3CCCCCC3)ccc21)N1CCc2ccccc2C1`, 974 s.
Under `O=C(Cn1nc2c3sc(N4CCCCC4)nc3ncn2c1=O)Nc1ccc(F)cc1Cl` stands 844 s.
Molecule `Cc1cccc(CN2CCCN(c3ncccc3-c3nc(C4CC4)no3)CC2)c1` came in with an RP-LC retention time of 732 s.
`Cc1ccc(C)c(C(O)Cn2ccn3nc(-c4cccc(Br)c4)cc3c2=O)c1` (stereo not drawn) gave an RP-LC retention time of 1160 s.
Under `O=C(NCC(O)c1ccc(C(F)(F)F)cc1)C(c1ccccc1)c1ccccc1` (stereo not drawn) stands 938 s.
In turn, `CC(=O)O[C@H]1C[C@@H]2OC3C=C(C)CCC3(C)[C@@]1(C)[C@@]21CO1` (stereo partly drawn) had an RP-LC retention time of 833 s.
Under `Cc1ccc(-c2ncc(NC(=O)c3ccc(Cl)s3)cn2)cc1` stands 1140 s.
Then `CSc1cccc(NC(=O)CN2CCC3(CC2)N=C(c2cccc(F)c2)C(=O)N3)c1`, with 685 s.
Under `CCc1nn2c(CNC(=O)c3cc(F)ccc3Cl)c(C)nc2s1` stands 669 s; under `CCOc1ccc(NC(=O)c2cc3c(=O)n(CC)ccc3n2C)cc1`, 757 s; under `Cc1cc(OC(C)C(=O)N[C@H](C(=O)O)C(C)C)c2c3c(c(=O)oc2c1)CCCC3` (stereo partly drawn), 865 s.
On to `COC(=O)c1cc(S(=O)(=O)N2CCCC2C(=O)NCc2ccc(Cl)cc2)cn1C` (stereo not drawn), for which the RP-LC retention time turned out to be 865 s.
Under `O=C(NCCC1CCN(C(=O)Nc2cc(F)ccc2F)CC1)c1ccsc1` stands 737 s; under `COc1ccccc1C(=O)NC1(C(F)(F)F)C(=O)N(C2CCCCC2)C(C)=C1C(C)=O` (stereo not drawn), 1080 s.
Turning to `O=C(NCCn1nc(-c2cccs2)ccc1=O)c1ccc2ncsc2c1`, the RP-LC retention time amounted to 629 s.
Then `CCN(CCCNC(=O)C1CCCN(c2ncnc3c2nc2n3CCCCC2)C1)c1cccc(C)c1` (stereo not drawn), with 647 s.

Values taken from the METLIN SMRT retention time set (Domingo-Almenara et al. 2019).
